Measured values taken from PubChem BioAssay AID248 (DTP/NCI, 2004).
Values joined by “and” are separate entries in the source; they are usually repeats but may differ in a detail not shown here. Equal values may be shown once. Inconclusive results and toxic doses are left out. Rule as the data show it: active = T/C of 150% or more; inactive = T/C below 125%.

Tested on: L1210 leukemia ip in BDF1 mice, survival T/C
Experiment: NCI In Vivo Anticancer Drug Screen. Data for tumor model L1210 Leukemia (intraperitoneal) in B6D2F1 (BDF1) mice
Details: endpoint: mean survival time, higher = longer survival
Method in brief: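 Tumor was transplanted into mice, which were then dosed with test compound or vehicle alone. Survival was recorded for each group, and the treated figure was expressed relative to the control figure.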

[1] = dose: 100.0 mg/kg/injection, schedule: Q01DX009 (ip), vehicle: saline with Tween-80
[2] = dose: 200.0 mg/kg/injection, schedule: Q01DX009 (ip), vehicle: saline with Tween-80
[3] = dose: 400.0 mg/kg/injection, schedule: Q01DX009 (ip), vehicle: saline with Tween-80
[4] = dose: 100.0 mg/kg/injection, schedule: Q04DX003 (ip), vehicle: saline with Tween-80
[5] = dose: 200.0 mg/kg/injection, schedule: Q04DX003 (ip), vehicle: saline with Tween-80
[6] = dose: 400.0 mg/kg/injection, schedule: Q04DX003 (ip), vehicle: saline with Tween-80
[7] = dose: 100.0 mg/kg/injection, schedule: Q04DX003 (ip), vehicle: Klucel (hydroxypropylcellulose) (HPC)
[8] = dose: 200.0 mg/kg/injection, schedule: Q04DX003 (ip), vehicle: Klucel (hydroxypropylcellulose) (HPC)
[9] = dose: 400.0 mg/kg/injection, schedule: Q04DX003 (ip), vehicle: Klucel (hydroxypropylcellulose) (HPC)
[10] = dose: 100.0 mg/kg/injection, schedule: Q01DX009 (ip), vehicle: Klucel (hydroxypropylcellulose) (HPC)
[11] = dose: 200.0 mg/kg/injection, schedule: Q01DX009 (ip), vehicle: Klucel (hydroxypropylcellulose) (HPC)
[12] = dose: 400.0 mg/kg/injection, schedule: Q01DX009 (ip), vehicle: Klucel (hydroxypropylcellulose) (HPC)
[13] = dose: 100.0 mg/kg/injection, schedule: Q01DX001 (ip), vehicle: saline
[14] = dose: 100.0 mg/kg/injection, schedule: Q01DX001 (ip), vehicle: Klucel (hydroxypropylcellulose) (HPC)
[15] = dose: 200.0 mg/kg/injection, schedule: Q01DX001 (ip), vehicle: Klucel (hydroxypropylcellulose) (HPC)

Measured: T/C

O=C1c2cccc3cc([N+](=O)[O-])cc(c23)C(=O)N1CC1CCCO1 (stereo unspecified)
inactive: dose: 100.0 mg/kg/injection, schedule: Q04DX003 (ip), vehicle: carboxymethylcellulose (CMC) 94 % of control | dose: 200.0 mg/kg/injection, schedule: Q04DX003 (ip), vehicle: carboxymethylcellulose (CMC) 96 % of control | dose: 400.0 mg/kg/injection, schedule: Q04DX003 (ip), vehicle: carboxymethylcellulose (CMC) 107 % of control

CCCCCCCCCCCCCCCCCC[n+]1ccccc1
inactive: dose: 0.09 mg/kg/injection, schedule: Q01DX009 (ip), vehicle: saline with Tween-80 89 % of control | dose: 0.19 mg/kg/injection, schedule: Q01DX009 (ip), vehicle: saline with Tween-80 99 % of control | dose: 0.39 mg/kg/injection, schedule: Q01DX009 (ip), vehicle: saline with Tween-80 96 % of control

O=C1C=CC[C@H](/C=C/c2ccccc2)O1
inactive: dose: 50.0 mg/kg/injection, schedule: Q01DX001 (ip), vehicle: alcohol 101 % of control | dose: 100.0 mg/kg/injection, schedule: Q01DX001 (ip), vehicle: alcohol 103 % of control | dose: 200.0 mg/kg/injection, schedule: Q01DX001 (ip), vehicle: alcohol 101 % of control | dose: 400.0 mg/kg/injection, schedule: Q01DX001 (ip), vehicle: alcohol 107 % of control

COC(=O)c1nc(Cl)nc(I)c1Cl
inactive: dose: 12.5 mg/kg/injection, schedule: Q01DX001 (ip), vehicle: other 102 % of control | dose: 25.0 mg/kg/injection, schedule: Q01DX001 (ip), vehicle: other 90 % of control

Cc1cn(-c2ccccc2)c(=O)[nH]c1=O
inactive: dose: 100.0 mg/kg/injection, schedule: Q01DX001 (ip), vehicle: other 112 % of control

CCCCCCCCCCCC(=O)NC(=S)Nc1ccccc1C(=O)OC
inactive: dose: 25.0 mg/kg/injection, schedule: Q01DX009 (ip), vehicle: saline with Tween-80 93 % of control | dose: 50.0 mg/kg/injection, schedule: Q01DX009 (ip), vehicle: saline with Tween-80 93 % of control | [1] 96 % of control and 92 % of control | dose: 100.0 mg/kg/injection, schedule: Q04DX002 (ip), vehicle: saline with Tween-80 102 % of control and 109 % of control | [2] 104 % of control and 86 % of control and 90 % of control | dose: 200.0 mg/kg/injection, schedule: Q04DX002 (ip), vehicle: saline with Tween-80 105 % of control and 89 % of control | [3] 94 % of control and 108 % of control | dose: 400.0 mg/kg/injection, schedule: Q04DX002 (ip), vehicle: saline with Tween-80 94 % of control and 88 % of control

Cc1cc(O)cc(C)c1Cl
inactive: [1] 91 % of control | [4] 92 % of control | [2] 92 % of control | [5] 96 % of control | [3] 89 % of control | [6] 96 % of control

O=C(NCCCl)NCc1ccccc1
inactive: [7] 103 % of control | [8] 107 % of control | [9] 113 % of control

CC(C)(C)CNC(C)(C)C
inactive: dose: 5.0 mg/kg/injection, schedule: Q01DX001 (ip), vehicle: saline 109 % of control | dose: 10.0 mg/kg/injection, schedule: Q01DX001 (ip), vehicle: saline 103 % of control | dose: 20.0 mg/kg/injection, schedule: Q01DX001 (ip), vehicle: saline 100 % of control | dose: 40.0 mg/kg/injection, schedule: Q01DX001 (ip), vehicle: saline 103 % of control | dose: 50.0 mg/kg/injection, schedule: Q04DX002 (ip), vehicle: saline 112 % of control | dose: 80.0 mg/kg/injection, schedule: Q01DX001 (ip), vehicle: saline 105 % of control | dose: 100.0 mg/kg/injection, schedule: Q04DX002 (ip), vehicle: saline 104 % of control | dose: 200.0 mg/kg/injection, schedule: Q04DX002 (ip), vehicle: saline 95 % of control

CCOC(=O)C(C)(C)Oc1ccc(OC(C)(C)C(=O)OCC)cc1
inactive: [10] 93 % of control | [11] 100 % of control | [12] 102 % of control

Nc1nc(-c2ccccc2)c(CCCNc2ccc(C(=O)NC(CCC(=O)O)C(=O)O)cc2)c(=O)[nH]1 (stereo unspecified)
inactive: dose: 50.0 mg/kg/injection, schedule: Q01DX001 (ip), vehicle: saline 98 % of control | [13] 104 % of control | [4] 106 % of control | dose: 200.0 mg/kg/injection, schedule: Q01DX001 (ip), vehicle: saline 98 % of control | [5] 100 % of control | dose: 400.0 mg/kg/injection, schedule: Q01DX001 (ip), vehicle: saline 101 % of control | [6] 89 % of control

O=C(Nc1ccc(Cl)cc1[N+](=O)[O-])Oc1ccc(C(=O)OCc2ccccc2)cc1
inactive: [10] 101 % of control | [11] 103 % of control | [12] 110 % of control

O=c1cc(NCc2cccc3ccc(Cl)cc23)[nH]c(=O)[nH]1
inactive: dose: 50.0 mg/kg/injection, schedule: Q01DX001 (ip), vehicle: Klucel (hydroxypropylcellulose) (HPC) 92 % of control | [14] 88 % of control | [15] 87 % of control

CN(CCc1ccccc1)/N=N/c1[nH]ncc1C(N)=O
inactive: [14] 108 % of control | [10] 103 % of control | [7] 105 % of control | [15] 105 % of control | [11] 106 % of control | [8] 97 % of control | dose: 400.0 mg/kg/injection, schedule: Q01DX001 (ip), vehicle: Klucel (hydroxypropylcellulose) (HPC) 113 % of control | [9] 100 % of control | dose: 600.0 mg/kg/injection, schedule: Q01DX009 (ip), vehicle: Klucel (hydroxypropylcellulose) (HPC) 105 % of control

CCCCc1c(N)nc(=S)[nH]c1C(=O)O
inactive: dose: 75.0 mg/kg/injection, schedule: Q01DX009 (ip), vehicle: Klucel (hydroxypropylcellulose) (HPC) 98 % of control | [7] 95 % of control | dose: 150.0 mg/kg/injection, schedule: Q01DX009 (ip), vehicle: Klucel (hydroxypropylcellulose) (HPC) 106 % of control | [8] 98 % of control and 91 % of control | dose: 300.0 mg/kg/injection, schedule: Q01DX009 (ip), vehicle: Klucel (hydroxypropylcellulose) (HPC) 108 % of control | [9] 96 % of control

O=C(Nc1ccccc1Cl)Nc1cc(Cl)ccc1Cl
inactive: dose: 100.0 mg/kg/injection, schedule: Q04DX002 (ip), vehicle: saline + alcohol 100 % of control | dose: 200.0 mg/kg/injection, schedule: Q04DX002 (ip), vehicle: saline + alcohol 100 % of control | dose: 400.0 mg/kg/injection, schedule: Q04DX002 (ip), vehicle: saline + alcohol 92 % of control

COc1ccccc1[N+](C)(C)C
inactive: [13] 102 % of control

Cc1cccc(S(=O)(=O)CS(=O)(=O)c2cccc(C)c2)c1
inactive: dose: 75.0 mg/kg/injection, schedule: Q01DX001 (ip), vehicle: carboxymethylcellulose (CMC) 102 % of control | dose: 150.0 mg/kg/injection, schedule: Q01DX001 (ip), vehicle: carboxymethylcellulose (CMC) 96 % of control | dose: 300.0 mg/kg/injection, schedule: Q01DX001 (ip), vehicle: carboxymethylcellulose (CMC) 91 % of control
